Measurements from paper PMC10276294, “Regulatory ligand binding in plant chalcone isomerase–like (CHIL) proteins” (The Journal of Biological Chemistry, 2023).
Values joined by “and” are separate entries in the source; they are usually repeats but may differ in a detail not shown here. Equal values may be shown once.

How the values were obtained:
VvCHIL Q141A [1] = biological target: T1, VvCHIL Q141A (Vitis vinifera, UniProt F6HC36, Q141A); assay: Quercetin fluorescence enhancement assay, VvCHIL Q141A; assay type: binding
T1 sequence (F6HC36 entry or part of it Q141A): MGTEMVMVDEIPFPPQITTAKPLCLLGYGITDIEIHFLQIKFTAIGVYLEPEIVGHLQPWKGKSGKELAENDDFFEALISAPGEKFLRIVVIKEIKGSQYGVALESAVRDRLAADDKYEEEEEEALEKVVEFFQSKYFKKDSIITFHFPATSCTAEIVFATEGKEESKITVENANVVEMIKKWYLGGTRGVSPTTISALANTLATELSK
Method: (§1) Fluorescence enhancement of quercetin (Thermo Scientific) was measured in the presence of VvCHIL and PpCHIL-A. The assays were performed in a buffer containing 25 mM Tris (pH 8.0), 150 mM NaCl, and 2% dimethyl sulfoxide (DMSO), used to solubilize quercetin. Protein concentrations were varied from 4.3 to 2250 μM relative to a constant concentration of quercetin (10 μM). After a binding equilibration period of 10 min at 25 °C, changes to the relative fluorescence intensity of quercetin (excitation 485 nm and emission 545 nm) were measured using a Vector X3 multimode plate reader (PerkinElmer). Background fluorescence from identical samples not containing quercetin was subtracted, and change-in-fluorescence data were fit using GraphPad Prism 9 (GraphPad Sofware, Inc) to a single-site binding equation in order to determine equilibrium dissociation constant (Kd) values.

PpCHIL-A [2] = biological target: T2, PpCHIL-A (Physcomitrium patens, UniProt A9T3E4); assay: Quercetin fluorescence enhancement assay, PpCHIL-A; assay type: binding, Physcomitrella patens; conditions: fluorescence enhancement of 10 μM quercetin, protein titrated, 25 °C, pH 8.0
T2 sequence (A9T3E4 entry or part of it): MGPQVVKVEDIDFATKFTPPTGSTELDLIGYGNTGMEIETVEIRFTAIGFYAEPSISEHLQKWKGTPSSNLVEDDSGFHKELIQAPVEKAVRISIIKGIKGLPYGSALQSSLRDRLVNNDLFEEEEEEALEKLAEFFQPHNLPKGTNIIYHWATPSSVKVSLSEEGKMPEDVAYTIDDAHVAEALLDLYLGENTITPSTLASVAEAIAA
Method: as §1

PpCHIL-A L188W [3] = biological target: T3, PpCHIL-A L188W (Physcomitrium patens, UniProt A9T3E4, L188W); assay: Quercetin fluorescence enhancement assay, PpCHIL-A L188W; assay type: binding, Physcomitrella patens
T3 sequence (A9T3E4 entry or part of it L188W): as the sequence (A9T3E4 entry or part of it) above, with L188W counted along it
Method: as §1

VvCHIL [4] = biological target: T4, VvCHIL (Vitis vinifera, UniProt F6HC36); assay: Differential scanning fluorimetry (DSF) thermal shift, VvCHIL; assay type: binding; conditions: for effect on protein thermostability (thermal shift): high ligand concentration; for ΔTm: read-out: maximum thermal shift (ΔTmmax)
T4 sequence (F6HC36 entry or part of it): as the sequence (F6HC36 entry or part of it Q141A) above, with A103Q counted along it
Text: (§2) Differential scanning fluorimetry (DSF) is a sensitive and label-free method for measuring the Tm of a protein, defined as the temperature at which 50% of a protein sample is unfolded ([21]). Positive Tm changes have been used to measure binding between a CHIL protein and chalcones ([15]). To elucidate a broader scope of CHIL–chalcone interactions, DSF was used to determine the thermal shifts that occur to VvCHIL and PpCHIL-A upon binding naturally occurring chalcones containing different substitution patterns (Fig. 1).
(§3) Assays were performed using SYPRO orange dye (1:625 dilution) and 6 μM CHIL protein against dilution series of (2R/2S)-naringenin (Sigma–Aldrich), NC, 2ʹ,4,4ʹ-trihydroxychalcone (Indofine), 2,2ʹ,4ʹ-trihydroxychalcone (Indofine), and quercetin (Thermo Scientific). Reactions were run in 20 μl reaction volumes and in a buffer containing 150 mM NaCl, 25 mM Tris (pH 8.0), 2 mM DTT, and 2% DMSO. Because of low solubility, 2% DMSO was used for all reactions to enhance ligand solubility. Experiments were performed on a QuantStudio 3 Real-Time PCR and analyzed using Protein ThermalShift software (Thermo Fisher Scientific). Replicates of two to four experiments were conducted for each condition, and GraphPad Prism 9 was used to fit maximum thermal shift (ΔTmmax) and apparent Kd values.

VvCHIL [5] = biological target: T4, VvCHIL; assay: Quercetin fluorescence enhancement assay, VvCHIL; assay type: binding
Method: as §1

VvCHIL W221L [6] = biological target: T5, VvCHIL W221L (Vitis vinifera, UniProt F6HC36, W221L); assay: Quercetin fluorescence enhancement assay, VvCHIL W221L; assay type: binding
T5 sequence (F6HC36 entry or part of it W221L): as the sequence (F6HC36 entry or part of it Q141A) above, with A103Q, W183L counted along it
Method: as §1

VvCHIL W221L [7] = assay: as above; assay type: binding, Vitis vinifera; conditions: VvCHIL W221L, fluorescence
Method: as §1

PpCHIL-A [8] = biological target: T2, PpCHIL-A; assay: Differential scanning fluorimetry (DSF) thermal shift, PpCHIL-A; assay type: binding, Physcomitrella patens; conditions: for difference of apparent Kd relative to NC: PpCHIL-A; for ΔTm: read-out: maximum thermal shift (ΔTmmax)
Text: as §2, §3

VvCHIL Q141A [9] = biological target: T1, VvCHIL Q141A; assay: DSF thermal shift, VvCHIL Q141A variant; assay type: binding
Method: as §3

PpCHS–PpCHIL-A L188W = assay: Protein pull-down assay, strep-PpCHS and PpCHIL-A L188W; assay type: binding, P. patens; conditions: 4.3 mM ligand
Method: (§4) Protein pull-down assays were conducted using 1 mg of purified strep-tagged AtCHS or PpCHS and 0.3 ml StrepTactin Sepharose resin. The untagged purified VvCHIL or PpCHIL-A proteins was used as […] (0.5 mg). Binding reactions were incubated at room temperature either without ligand and 2% DMSO, or with the reported concentration of ligand and 2% DMSO. The StrepTactin resin was washed 4× with 1 ml of buffer in order to remove unbound protein prior to elution. Each wash buffer contained the reported concentration of ligand, 2% DMSO, 150 mM NaCl, 50 mM Tris (pH 8.0), and 2 mM DTT. Strep-CHS was eluted from the StrepTactin resin with 0.1 ml elution buffer, which contains 1 mM desthiobiotin, 2% DMSO, 150 mM NaCl, 50 mM Tris (pH 8.0), and 2 mM DTT. The pull-down assays were resolved using 15% acrylamide SDS-PAGE and native PAGE gels and imaged and quantified using Image Lab (Bio-Rad). About 50 mM of DTT was used in the native PAGE loading buffer.

PpCHIL-A L188W [10] = biological target: T3, PpCHIL-A L188W; assay: DSF thermal shift, PpCHIL-A L188W variant; assay type: binding, Physcomitrella patens
Method: as §3

VvCHIL W221L [11] = biological target: T5, VvCHIL W221L; assay: DSF thermal shift, VvCHIL W221L variant; assay type: binding
Method: as §3

VvCHIL–AtCHS binding = assay: Protein pull-down assay, strep-AtCHS and untagged VvCHIL; parameters: species or system Vitis vinifera / A. thaliana; conditions: for effect on VvCHIL–AtCHS binding: increasing ligand concentrations, 2% DMSO
Method: as §4

MsCHI-II = biological target: T6, MsCHI-II (Medicago sativa, UniProt P28012); assay: Differential scanning fluorimetry (DSF) thermal shift, MsCHI-II; assay type: binding; conditions: pH 8.0, 2% DMSO, read-out: apparent Kd
T6 construct: His8 (thrombin-cleavable) (N, cleaved yes); made in house; host or cells: E. coli BL21 DE3-pRIL
T6 sequence (P28012 1-222): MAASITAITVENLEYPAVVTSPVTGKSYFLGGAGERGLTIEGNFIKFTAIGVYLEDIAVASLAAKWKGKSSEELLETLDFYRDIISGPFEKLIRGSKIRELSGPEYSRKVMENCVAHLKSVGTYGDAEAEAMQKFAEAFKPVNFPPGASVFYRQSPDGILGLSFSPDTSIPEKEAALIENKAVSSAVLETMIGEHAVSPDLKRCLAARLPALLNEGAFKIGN

PpCHIL–PpCHS binding = assay: Protein pull-down assay, strep-PpCHS and untagged PpCHIL-A; parameters: species or system P. patens; conditions: 4.3 mM ligand
Method: as §4

[12] = biological target: Chalcone isomerase-like protein from Vitis vinifera (VvCHIL) (Vitis vinifera); assay: SEC; HiPrep Sephacryl S-200 high-resolution column, 1 ml/min, 200 mM NaCl, 25 mM Tris pH 8.0, 2 mM DTT; His tags removed; masses against Bio-Rad standards
HlCHIL1 = biological target: HlCHIL1; parameters: method as in PMID 29760092; conditions: measured by DSF; ref [15]; cited from earlier work
[13] = fluorescence enhancement of quercetin
[14] = DSF, 6 μM protein, pH 8.0, 2% DMSO
[15] = DSF, single-site fit, 6 μM protein, pH 8.0, 2% DMSO, read-out: apparent Kd

Row | fold difference of apparent Kd relative to NC (NC smaller) (VvCHIL [4]; VvCHIL, DSF) | Compound | effect on protein thermostability (thermal shift) (VvCHIL [4]; VvCHIL, DSF) | Kd (PpCHIL-A [8]) [µM] | difference of apparent Kd relative to NC (PpCHIL-A [8]; DSF) | pull-down of PpCHIL-A L188W by PpCHS (PpCHS–PpCHIL-A L188W) | Kd (PpCHIL-A L188W [10]) [µM] | increase of apparent binding affinity over wildtype PpCHIL-A (PpCHIL-A L188W [10]; PpCHIL-A L188W, DSF) | effect on VvCHIL–AtCHS binding (VvCHIL–AtCHS binding) | PpCHIL-A in the strep-PpCHS–bound fraction (PpCHIL–PpCHS binding) | ΔTm (PpCHIL-A [8]; [14]) [°C] | Kd (PpCHIL-A [8]; [15]) [µM] | ΔTm (VvCHIL [4]; [14]) [°C] | Kd (VvCHIL [4]; [15]) [µM] | further results
1 | – | O=c1c(O)c(-c2ccc(O)c(O)c2)oc2cc(O)cc(O)c12 [quercetin] | destabilizes | – | – | – | – | – | – | – | – | – | – | – | change of binding relative to wildtype VvCHIL (VvCHIL Q141A [1]; fluorescence): not significantly altered; Kd (VvCHIL Q141A [1]; [13]): 403 ± 59 µM; Kd (PpCHIL-A [2]): 240 ± 121 µM; reduction of binding affinity relative to wildtype PpCHIL-A (PpCHIL-A L188W [3]; fluorescence): approximately twofold; Kd (PpCHIL-A L188W [3]; [13]): 582 ± 282 µM; ligand concentration that induces a negative thermal shift (VvCHIL [4]; VvCHIL, DSF): above 750 μM; fraction of VvCHIL bound (VvCHIL [5]; 750 μM quercetin, based on the Kd value for VvCHIL): 0.68; Kd (VvCHIL [5]; fluorescence enhancement of 10 μM quercetin, protein titrated, 25 °C, pH 8.0): 347 ± 35 µM; Kd (VvCHIL W221L [6]): 612 ± 167 µM; reduction of binding relative to wildtype VvCHIL (VvCHIL W221L [7]): approximately twofold
2 | approximately 5 fold | O=C(/C=C/c1ccc(O)cc1)c1ccc(O)cc1O [2ʹ,4,4ʹ-trihydroxychalcone] | – | 41 ± 10 | does not bind with an appreciable difference | – | – | – | – | – | – | – | – | – | Kd (VvCHIL [4]): 127 ± 51 µM
3 | – | O=C1C[C@@H](c2ccc(O)cc2)Oc2cc(O)cc(O)c21 [naringenin] | reduced protein Tms at high naringenin concentrations | 762 ± 39 | – | similarly in the presence and absence of naringenin | 180 ± 81 | approximately fourfold | increasingly disrupted | observed in the bound fractions | – | – | – | – | thermal destabilization by ligand (VvCHIL Q141A [9]; VvCHIL Q141A, DSF): does not undergo thermal destabilization; reduction of thermal stabilization relative to wildtype PpCHIL-A (PpCHIL-A L188W [10]; PpCHIL-A L188W, DSF): approximately 2 °C; thermal destabilization by ligand (VvCHIL W221L [11]; VvCHIL W221L, DSF): does not undergo thermal destabilization; VvCHIL band in the strep-AtCHS–bound fraction (VvCHIL–AtCHS binding; 4.30 mM ligand): below the threshold of detection; Kd (MsCHI-II): 1020 µM and 1050 µM
4 | ~11 fold | O=C(/C=C/c1ccccc1O)c1ccc(O)cc1O [2,2ʹ,4ʹ-trihydroxychalcone] | – | – | twofold greater | – | – | – | – | – | 2.7 ± 0.2 | 85 ± 23 | 3.3 ± 0.7 | 286 ± 23 | –
5 | – | Chalcone isomerase-like protein from Vitis vinifera (VvCHIL) (natural protein) | – | – | – | – | – | – | – | – | – | – | – | – | stoichiometry N [12]: 3
6 | – | O=C(/C=C/c1ccc(O)cc1)c1c(O)cc(O)cc1O [NC, 2ʹ,4,4ʹ,6ʹ-tetrahydroxychalcone] | – | – | – | enhanced | 18 ± 6 | approximately threefold | enhances binding | strongly enriched | 1.7 ± 0.2 | 58 ± 16 | 3.5 ± 0.2 | 24 ± 5 | Kd (VvCHIL Q141A [9]): 16 ± 2 µM; Kd (VvCHIL W221L [11]): 17 ± 4 µM; Kd (HlCHIL1): 43 µM; ΔTmmax (HlCHIL1): 6.4 °C
